Usually Kd stands for the concentration at which binding is half-saturated. For orientation: IC50 means the concentration at which inhibition is half-maximal.

Like-named read-outs stand apart in the source and are kept apart here.

Four molecules from paper PMC5786060, “Discovery of new molecular entities able to strongly interfere with Hsp90 C-terminal domain” (Scientific Reports, 2018) can be followed below.

One series has as its target T1, recombinant human Hsp90α (Homo sapiens, UniProt P07900).
T1 construct: purchased Abcam
Description: SPR binding to immobilized recombinant Hsp90α. The following applies: Biacore 3000, immobilized full length Hsp90α, 25 °C, 1:1 Langmuir model, read-out: KD (nM) ± SD. Here is the method: Recombinant human Hsp90α was purchased from Abcam (Abcam, Cambridge, UK). […] SPR analyses were carried out according to our previously published data[25]–[28],[32],[50]. Surface Plasmon Resonance Spectroscopy (SPR) analyses were performed to determine binding of various molecules to full length Hsp90α using a Biacore 3000 optical biosensor equipped with research-grade CM5 sensor chips (GE Healthcare). Hsp90α was coupled to the surface of a CM5 sensor chip using standard amine-coupling protocols, according to the manufacturer’s instructions.
The protein (100 µg mL^−1 in 10 mM CH3COONa, pH 5.0) was immobilized on individual sensor chip surfaces at a flow rate of 5 µL min^−1 to obtain densities of 8–12 kRU. For the experiments a recombinant Hsp90α surface, a BSA surface and one unmodified reference surface were prepared for simultaneous analyses. […] For each molecule a six-point concentration series were set up, spanning […], and for each sample the complete binding study was performed using triplicate aliquots. Changes in mass, due to the binding response, were recorded as resonance units (RU). To obtain the dissociation constant (KD) (Table 1), these responses were fit to a 1:1 Langmuir binding model by nonlinear regression using the BiaEvaluation software program provided by GE Healthcare. Simple interactions were suitably fitted to a single-site bimolecular interaction model (A + B = AB), yielding a single KD. (Table 1). SPR experiments were performed at 25 °C, using a flow rate of 50 µL min^−1, with 60 s monitoring of association and 300 s monitoring of dissociation.

The subject of series [1] is U937 (human monocytic cell line from histiocytic lymphoma). Description: Anti-proliferation MTT assay, U937 cells. Type of series: cell-based. The following applies: Homo sapiens. On the procedure:
(§1) Jurkat and U937 (2 × 10^4 /well) cells were seeded in triplicate in 96 well−plates and incubated for the 24 h or 48 h in the absence or presence of different concentrations of compounds 1, 4–5, 7–15, 21–22, 26 (concentration between 10 µM to 100 µM) or Novobiocin (concentration between 50 µM to 500 µM). Stock solutions of compounds (100 mM in DMSO) were diluted just before addition to the sterile culture medium and the final concentration of DMSO was 0.15% (v/v).
(§2) The number of viable cells was determined by using a […] (MTT, Sigma-Aldrich) conversion assay, according to the method described by Terracciano et al. 2016[27],[28]. After the indicated treatment, the cells were incubated for additional 3 h at 37 °C, with 25 µL of MTT (5 mg/mL in PBS). The formazan crystals thus formed were dissolved in 100 μl of buffer containing 50% (v/v) N,N-dimethylformamide, 20% SDS (pH 4.5). The absorbance was read at 570 nm using an Absorbance Microplate Reader (Titertek multiskan MCC7340, LabSystems, Vienna, VA, USA) equipped with a 620 nm filter. The cell population growth inhibition was also tested by cytometric counting (trypan blu exclusion). IC50 values were calculated from cell viability dose−response curves and defined as the concentration resulting in 50% inhibition of cell survival, compared to control cells treated with DMSO (see Supplementary Material Tables S2 and S3).

Series [2] relates to Jurkat (human leukemic T lymphocyte). The series is described as follows: Anti-proliferation MTT assay, Jurkat cells. Type of series: cell-based. The conditions noted are these: Homo sapiens. Here is the method:
as §1, §2
On the technique in general: Formazan colour is commonly taken as a measure of viable cells.

Series [3] concerns PHA-stimulated human peripheral blood mononuclear cells (PBMC). The series is described as follows: Cytotoxicity on PHA-stimulated PBMC by trypan blue count. It counts as cell-based. The following applies: 25 µM, DMSO control about 5 ± 0.9%. On the procedure: Human peripheral blood mononuclear cells (PBMC), induced to proliferate by phytohemagglutinin (PHA) (10 µg/ml), were used to evaluate cytotoxic effects by trypan blue count of compound 7 and 10. Human peripheral blood mononuclear cells (PBMC) were isolated from buffy coats of healthy donors (kindly provided by the Blood Center of the Hospital of Battipaglia, Salerno, Italy) by using standard Ficoll−Hypaque gradients.

The next series relates to Jurkat cells. Description: Cell cycle distribution / hypodiploid cells by PI flow cytometry. Type of series: cell-based, human. The conditions noted are these: for hypodiploid cells (subG0/G1 DNA content): 100 µM; for hypodiploid cells: 200 µM. Here is the method:
Cell DNA content was measured by propidium iodide (PI) incorporation into permeabilized cells, as described by Nicoletti et al. Briefly, the Jurkat cells were treated for 24 h or 48 h with compounds used at the different concentrations. In particular, the compounds 7 or 10 were used at 25 or 50 µM, novobiocin was used at 50, 100 or 200 µM. The treated cells were harvested and incubated with a PI solution (0.1% sodium citrate, 0.1% Triton X-100 and 50 μg/ml of prodium iodide, Sigma-Aldrich, 10 μg/ml Rnase A) for 30 min at room temperature.
The cells were analyzed using FACScalibur flow cytometry (Becton Dickinson, San Josè, CA. The distribution of cells in cell cycle phases was determined using ModFit LT analysis software (Becton Dickinson). The percentage of apoptotic cells is represented as the percentage of hypodiploid cells accumulated at the sub G0/G1 phase of the cell cycle and was quantified using the CellQuest software (Becton Dickinson). Results were expressed as a mean ± SD of three experiments performed in triplicate.

For series [4], the system named is Hsp90-dependent client proteins Raf-1, p-Akt, p-Erk and p53; Hsc70, Hsp90, Hsp70 in Jurkat cells. The series is described as follows: Western blot of Hsp90 client proteins and heat shock proteins. It counts as cell-based, human. The conditions noted are these: 24 h; for degradation of Hsp90-dependent client proteins Raf-1, p-Akt, p-Erk and p53 / reduction of Hsc70: 25 and 50 µM, western blot densitometry. On the procedure:
Following the treatment, the cells were trypsinized and homogenized on ice in RIPA lysis buffer (50 mM Hepes, 10 mM EDTA, 150 mM NaCl, 1% NP-40, 0.5% sodium deoxycholate, 0.1% SDS, pH 7.4), supplemented with protease inhibitors cocktail (Sigma-Aldrich). After centrifugation at 4 °C to removed cell debris, an equal protein amount (40 µg) was separated by SDS-PAGE under denatured reducing conditions and was then transferred to nitrocellulose membranes. The blots were blocked with 3% BSA and were incubated at 4 °C overnight with primary antibodies: anti-Hsp 70; anti-Hsp 90α/ß, anti-Raf1, anti-pAkt, anti Erk, anti pErk, anti-p53, anti Hsc70, anti GRP94, anti cyclin A antibodies (Santa Cruz Biotechnology, Inc., Delaware, CA, USA), anti-actin antibody (Sigma-Aldrich) anti CDK2, anti Cyclin D1 and anti CDK4 antibodies (Cell Signaling Technology, Leiden, Netherlands). Appropriate peroxidase-conjugate secondary antibodies were used to detect primary antibodies, and enzymatic signals were visualized by chemiluminescence reagent Pierce ECL (Thermo Scientific, Rockford, IL, USA). Quantitative densitometry analyses were performed using a ImageQuant LAS 4000 system (GE Healthcare Life Sciences,NY, USA).

The mark [5] stands for this setting: U-937, 24 h, read-out: IC50 (µM) 24h.
[6] abbreviates: U-937, 48 h, read-out: IC50 (µM) 48h.

For `COc1ccc(NCC(=O)Nc2ncc(Cc3ccc(Cl)c(Cl)c3)s2)cc1` [Compound 7], the Kd at recombinant human Hsp90α was determined as 5.2 ± 3.8 nM. Besides, the IC50 in series [1] (setting [5]) is 51.2 µM; in series [1] (setting [6]), 51 µM; in series [2] (24 h, read-out: IC50 (µM) 24h), 25.1 µM; in series [2] (48 h, read-out: IC50 (µM) 48h) it was 22 µM. Also, the non-viable cells percentage result in series [3] (24 h) is reported as “about 6 ± 1.8%”; in series [3] (48 h), roughly 8 ± 1.5%. In addition, the “hypodiploid cells (subG0/G1 DNA content)” value in the series on Jurkat cells (48 h) came to 10%. Further, the “degradation of Hsp90-dependent client proteins Raf-1, p-Akt, p-Erk and p53” value in series [4] is reported as 50–60%. Besides, the “reduction of Hsc70” value in series [4] is reported as 15–20%.

As to `O=C(CCCCCn1c(=O)[nH]c2ccccc2c1=O)Nc1ccc(Br)cc1F` [Compound 10], the Kd on recombinant human Hsp90α was 20.8 ± 8.7 nM. In addition, the IC50 came to 52 µM in series [1] (setting [5]); 50 µM in series [1] (setting [6]); 26.1 µM in series [2] (24 h, read-out: IC50 (µM) 24h); 23.5 µM in series [2] (48 h, read-out: IC50 (µM) 48h). Besides, the non-viable cells percentage result is given as “about 7 ± 1.3%” in series [3] (24 h) and roughly 9 ± 1.8% in series [3] (48 h). Besides, the “hypodiploid cells (subG0/G1 DNA content)” value in the series on Jurkat cells (48 h) is reported as 10%. The “cell cycle phase in which cells are arrested” value with Jurkat cells (after 24 h, retained after 48 h) is reported as “S phase”. Besides, the “degradation of Hsp90-dependent client proteins Raf-1, p-Akt, p-Erk and p53” value in series [4] was 50–60%. Moreover, the “reduction of Hsc70” value in series [4] is 15–20%.

With `C=CCNC1=C2C[C@@H](C)C[C@H](OC)[C@H](O)[C@@H](C)/C=C(\C)[C@H](OC(N)=O)[C@@H](OC)/C=C\C=C(/C)C(=O)NC(=CC1=O)C2=O` [Compound 17-AAG, 17-(Allylamino)-17-demethoxygeldanamycin, reference compound], in series [4] (17-AAG 2 µM, compounds 25 and 50 µM), the “effect on Hsp90 and Hsp70 protein levels (heat shock response)” value was “significant up-regulation of Hsp90 and Hsp70 expression levels”.

`CO[C@@H]1[C@@H](OC(N)=O)[C@@H](O)[C@H](Oc2ccc3c(O)c(NC(=O)c4ccc(O)c(CC=C(C)C)c4)c(=O)oc3c2C)OC1(C)C` [Novobiocin, reference compound]: the IC50 in series [1] (setting [5]) came out at 232 µM; in series [1] (setting [6]) it was 190 µM; in series [2] (24 h, read-out: IC50 (µM) 24h) it was 171 µM; in series [2] (48 h, read-out: IC50 (µM) 48h), 150 µM. The hypodiploid cells with Jurkat cells (24 h) is recorded as 14%; in the series on Jurkat cells (48 h), 30%. Moreover, in the series with Jurkat cells (50 and 100 µM, 24 or 48 h), the “effect on cell cycle progression” value is on record as “did not affect cell cycle progression”.
